Assay results reported in US9861615B2, “Methods and pharmaceutical compositions for the treatment of beta-thalassemias” (INSERM (INSTITUT NATIONAL DE LA SANTE ET DE LA RECHERCHE …, priority 2013, dated 2018).

Columns and labels:
[1] = test system: CD36+ cells derived from circulating CD34+ cells from Beta thalassemia major patient; assay: Proliferation, cell death and terminal maturation of beta-thalassemia CD36+ cells; type: cell-based, human
Method: FIG. 6. CD36+ cells, derived from circulating CD34+ cells from Beta thalassemia major patient, were treated or not with KPT molecule (KPT 0=DMSO, KPT 100=100 nM, KPT 1000=1000 nM), and analysed at 24 h, 48 h, 72 h and 96 h of treatment. Day 0 of treatment corresponds to day 5 of CD36+ culture. a) Proliferation of CD36+ cells between 24 h and 96 h, for the different conditions of KPT treatment. b) Cell death of CD36+ cells between 48 h and 96 h, for the different conditions of KPT treatment. c) Flow cytometry analysis of Mean fluorescence intensity (MFI) for Band 3 protein, in CD36+ cells, in the different conditions of KPT treatment. d) MGG count of immature, polychromatophiles and acidophiles+reticulocytes at 96 h of treatment, for the different conditions of KPT treatment and e) corresponding maturation indexes.
FIG. 7: CD36+ cells, derived from circulating CD34+ cells from Beta thalassemia major patient, were treated or not with KPT molecule (KPT 0=DMSO, KPT 100=100 nM, KPT 1000=1000 nM), and analysed at 24 h, 48 h, and 72 h of treatment. Day 0 of treatment corresponds to day 6 of CD36+ culture. a) Proliferation of CD36+ cells between 24 h and 72 h, for the different conditions of KPT treatment. b) Cell death of CD36+ cells between 24 h and 72 h, for the different conditions of KPT treatment. c) Flow cytometry analysis of MFI for Band 3 protein, in CD36+ cells, in the different conditions of KPT treatment. d) Flow cytometry analysis of the number of small, alive, CD36+ cells positive for fœtal haemoglobin in the different conditions of KPT treatment. e) MGG count of immature, polychromatophiles and acidophiles+reticulocytes at 48 h of treatment, for the different conditions KPT 0 and KPT 100 nM and f) corresponding maturation indexes.
(§1) Data from FIG. 6 and FIG. 7 are from two different experiments on CD36+ cells from a beta-thalassemia patient. Data from FIG. 8 have been performed with cells from FIG. 7 experiment. Beta-thalassemia erythroblasts were generated in vitro from peripheral blood circulating CD34+ cells from an adult patient with beta-thalassemia major (β^0-TM). This study was performed according to the Helsinky Declaration with approval from the ethics committee of our institution.
In vitro, maturation is arrested at the polychromatophilic stage in beta-thalassemia erythroid progenitors. To quantify the maturation arrest in beta-thalassemia cells, we use an index of terminal maturation as the number (acidophilic cells+reticulocytes per slide)*100 divided by the number of polychromatophilic cells per slide (Arlet J b et al. Nature oct 2014).

[2] = test system: HSP70 nuclear localization in beta-thalassemia CD36+ cells; assay: HSP70 localization and GATA1 fluorescence in beta-thalassemia CD36+ cells; type: cell-based, human
Method: FIG. 8. CD36+ cells from the same experiment as FIG. […] Percentages of cells containing HSP70 located in the nucleus (black) or in the cytoplasm (grey), gated on the total population of cells analyzed, for the different treatment conditions: KPT 0 (a), KPT 100 nM (b) and KPT 1000 nM (c). d) HSP70 cytoplasm/nuclear ratio for the three treatment conditions e) Mean intensity and standard deviation for GATA1 transcription factor fluorescence.
as §1
Amnis Technology enables to analyse fluorescence localization in a large number of cells beforehand labelled. Here we show the percentage of cells positive for HSP70 labelling in the nucleus, or in the cytoplasm, for conditions KPT 0, 100 nM and 1000 nM (FIG. 8). We can observe that the fraction of cells positive for HSP70 in the nucleus increases in KPT 100 nM and 1000 nM conditions (FIGS. 8b and 8c), compared to KPT 0 (FIG. 8a).

[3] = test system: CD36+D6 erythroid progenitors from cord blood; assay: Cell death of CD36+D6 cells during EPO starvation; type: cell-based, human; details: EPO starvation during 20 h (80% of cell death without KPT)
Method: FIG. 3B. EPO starvation during 20 h results in 80% of cell death. Treatment of CD36+D6 with KPT at 100 nM, 333 nM during EPO starvation decreases cell death, of 49% and 39% respectively, compared to the absence of KPT treatment.
(§2) Umbilical cord blood units from normal full-term deliveries were obtained, after informed mother's consent, from the Obstetrics Unit of Hôpital Necker-Enfants Malades. CD36+ erythroid progenitors, generated from 7 days IL-6+IL3+SCF− cultured CD34 progenitors isolated from cord blood (Miltenyi CD34 Progenitor Cell Isolation Kit), were cultured in the presence of IL3+SCF+Epo in IMDM (Gibco cell culture) supplemented with 15% BIT 9500 (Stem Cell Technologies).

[4] = test system: CD36+ erythroid progenitors from cord blood; assay: Toxicity of KPT on CD36+ erythroid progenitors, normal EPO; type: cell-based, human; details: day 6 (D6) of culture; 33 nM, 100 nM, 333 nM and 1000 nM; normal concentrations of EPO; until 20 h of treatment
Method: FIG. 3A. KPT is not toxic for CD36+ erythroid progenitors from cord blood at day 6 (D6) of culture, when diluted at concentrations 33 nM, 100 nM, 333 nM and 1000 nM in CD36+ culture media, with normal concentrations of erythropoietin (EPO), until 20 h of treatment.
as §2

[5] = test system: HSP70 nuclear retention in CD36+D6 from cord blood; assay: HSP70 nuclear retention in cord blood CD36+D6 under EPO starvation; type: cell-based, human; details: after 20 h of treatment
Method: as §2
5·10^4 cells were spin on slides, acetone fixated, hydrated with cold 1×PBS 1% BSA for 30 minutes, treated with formaldehyde for 15 min (Sigma), then with methanol (Prolabo) for 10 minutes at room temperature. Cells were then permeabilized with 1×PBS 0.2% triton X100 (Sigma) for 10 min at 4° C., washed and incubated in 10% BSA for 30 minutes. They were then sequentially incubated with antibodies diluted in 1×PBS 1% BSA 0.1% tween (Sigma). Nuclei were stained with DAPI and slides were examined with a confocal laser microscope (LSM 700 Carl Zeiss).

[6] = target: XPO1 (Homo sapiens, UniProt O14980); details: cited from earlier work
Sequence of XPO1 (O14980 whole entry): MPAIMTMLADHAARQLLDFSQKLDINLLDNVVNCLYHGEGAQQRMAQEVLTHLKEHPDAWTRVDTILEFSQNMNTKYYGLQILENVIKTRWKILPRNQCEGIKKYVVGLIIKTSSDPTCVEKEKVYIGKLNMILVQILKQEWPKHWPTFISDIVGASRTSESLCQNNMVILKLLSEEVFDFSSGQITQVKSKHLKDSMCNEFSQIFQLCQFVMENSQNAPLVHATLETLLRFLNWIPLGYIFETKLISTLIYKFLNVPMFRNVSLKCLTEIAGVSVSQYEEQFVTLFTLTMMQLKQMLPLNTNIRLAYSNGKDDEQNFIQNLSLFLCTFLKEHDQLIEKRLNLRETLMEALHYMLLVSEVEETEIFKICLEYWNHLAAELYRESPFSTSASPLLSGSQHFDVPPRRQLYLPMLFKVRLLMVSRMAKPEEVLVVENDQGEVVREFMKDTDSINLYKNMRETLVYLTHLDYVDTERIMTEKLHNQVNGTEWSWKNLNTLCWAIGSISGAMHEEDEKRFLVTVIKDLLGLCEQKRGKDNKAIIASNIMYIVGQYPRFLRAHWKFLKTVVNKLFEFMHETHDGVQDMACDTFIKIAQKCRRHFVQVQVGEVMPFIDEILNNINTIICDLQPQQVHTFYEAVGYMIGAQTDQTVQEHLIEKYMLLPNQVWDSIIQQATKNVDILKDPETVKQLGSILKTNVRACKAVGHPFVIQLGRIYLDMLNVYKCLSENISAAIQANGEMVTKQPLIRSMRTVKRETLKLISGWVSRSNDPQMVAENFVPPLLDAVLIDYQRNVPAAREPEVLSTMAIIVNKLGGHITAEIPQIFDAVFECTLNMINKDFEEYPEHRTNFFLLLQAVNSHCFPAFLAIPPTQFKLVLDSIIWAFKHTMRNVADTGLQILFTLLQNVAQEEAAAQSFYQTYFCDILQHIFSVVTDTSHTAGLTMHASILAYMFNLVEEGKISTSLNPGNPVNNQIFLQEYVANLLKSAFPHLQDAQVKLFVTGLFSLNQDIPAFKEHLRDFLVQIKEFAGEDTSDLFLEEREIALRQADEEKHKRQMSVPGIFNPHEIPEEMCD

| SMILES | proportion of HbF positive among the population of small alive cells ([1]; 72 hours of treatment with 1000 nM, compared to KPT 0 and KPT 100 nM) | maturation index (acidophilic cells+reticulocytes)*100 / polychromatophilic cells ([1]; KPT 100 nM and 1000 nM compared to control condition KPT 0) | mean fluorescence intensity (MFI) of Band 3 protein labelling ([1]; KPT 100 nM or 1000 nM, at 96 h of treatment (FIG. 6c) and at 72 h of treatment (FIG. 7c), flow cytometry) | cytotoxicity (cell death of CD36+ cells) ([1]; KPT 1000 nM compared to KPT 0 and KPT 100 nM) | proliferation of CD36+ cells ([1]; KPT 1000 nM compared to KPT 0 and KPT 100 nM, only in the experiment with high proliferation rate in control condition) | HSP70 cyto/nuclear fraction ([2]; KPT 100 nM and 1000 nM compared to KPT 0, 24 h of treatment) | fraction of cells positive for HSP70 in the nucleus ([2]; KPT 100 nM and 1000 nM compared to KPT 0, 24 h of treatment, Amnis) | mean of fluorescence intensity of GATA1 labelling ([2]; KPT treatment conditions of FIG. 8, 24 h of treatment) | HSP70 nuclear localization ([2]; beta-thalassemia CD36+D8 cells, 72 h of treatment at 100 nM, compared to non treated cells) | decrease of cell death compared to the absence of KPT treatment ([3]; KPT 100 nM) [%] | decrease of cell death compared to the absence of KPT treatment ([3]; KPT 333 nM) [%] | toxicity for CD36+ erythroid progenitors [4] | HSP70 nuclear retention [5] | HSP70 nuclear retention in erythroid precursor cells [6] |
| --- | --- | --- | --- | --- | --- | --- | --- | --- | --- | --- | --- | --- | --- | --- |
| FC(F)(F)c1cc(-c2ncn(/C=C\c3nnco3)n2)cc(C(F)(F)F)c1 [KPT] | higher | increases | increases | little cytotoxicity | decreased proliferation | decrease | increases | increase | induces HSP70 nuclear localization | 49 | 39 | not toxic | induces HSP70 nuclear retention | – |
| CCC(=C/[C@H](C)C/C=C/C(C)=C/[C@@H](C)C(=O)[C@@H](C)[C@H](O)[C@@H](C)C/C(C)=C/C(=O)O)/C=C/[C@@H]1OC(=O)C=C[C@@H]1C [Leptomycin B] | – | – | – | – | – | – | – | – | – | – | – | – | – | induces HSP70 nuclear retention |
